# Reference: ChEMBL document CHEMBL4507284, “Data for DCP probe BI-1230” (2021)
# Assays:
# [1] = target: Inhibitor of nuclear factor kappa-B kinase subunit alpha (Homo sapiens) (UniProt O15111); conditions: Compound concentration 1000.0 nM
# [2] = system: Epidermal growth factor receptor (Homo sapiens), P00533 [T790M]; conditions: Compound concentration 1000.0 nM
# [3] = target: Tyrosine-protein kinase BTK (Homo sapiens) (UniProt Q06187); conditions: Compound concentration 1000.0 nM
# [4] = target: Beta-2 adrenergic receptor (Homo sapiens) (UniProt P07550); conditions: Compound concentration 10.0 uM
# [5] = target: Mast/stem cell growth factor receptor Kit (Homo sapiens) (UniProt P10721); conditions: Compound concentration 1000.0 nM
# [6] = target: Serine/threonine-protein kinase NLK (Homo sapiens) (UniProt Q9UBE8); conditions: Compound concentration 1000.0 nM
# [7] = target: Rho-associated protein kinase 2 (Homo sapiens) (UniProt O75116); conditions: Compound concentration 1000.0 nM
# [8] = system: Serine/threonine-protein kinase B-raf (Homo sapiens), P15056 [V600E]; conditions: Compound concentration 1000.0 nM
# [9] = target: cAMP-dependent protein kinase catalytic subunit PRKX (Homo sapiens) (UniProt P51817); conditions: Compound concentration 1000.0 nM
# [10] = target: Mitogen-activated protein kinase 4 (Homo sapiens) (UniProt P31152); conditions: Compound concentration 1000.0 nM
# [11] = target: Activin receptor type-1 (Homo sapiens) (UniProt Q04771); conditions: Compound concentration 1000.0 nM
# [12] = target: Myosin-IIIb (Homo sapiens) (UniProt Q8WXR4); conditions: Compound concentration 1000.0 nM
# [13] = system: Mast/stem cell growth factor receptor Kit (Homo sapiens), P10721 [A829P]; conditions: Compound concentration 1000.0 nM
# [14] = system: Receptor-type tyrosine-protein kinase FLT3 (Homo sapiens), P36888 [D835Y]; conditions: Compound concentration 1000.0 nM
# [15] = target: Ephrin type-A receptor 6 (Homo sapiens) (UniProt Q9UF33); conditions: Compound concentration 1000.0 nM
# [16] = target: Tyrosine-protein kinase FRK (Homo sapiens) (UniProt P42685); conditions: Compound concentration 1000.0 nM
# [17] = target: BDNF/NT-3 growth factors receptor (Homo sapiens) (UniProt Q16620); conditions: Compound concentration 1000.0 nM
# [18] = target: Tyrosine-protein kinase ABL1 (Homo sapiens) (UniProt P00519); conditions: Compound concentration 1000.0 nM
# [19] = target: Ribosomal protein S6 kinase alpha-6 (Homo sapiens) (UniProt Q9UK32); conditions: Compound concentration 1000.0 nM
# [20] = target: Epidermal growth factor receptor (Homo sapiens) (UniProt P00533); conditions: Compound concentration 1000.0 nM
# [21] = target: Leucine-rich repeat serine/threonine-protein kinase 2 (Homo sapiens) (UniProt Q5S007); conditions: Compound concentration 1000.0 nM
# [22] = target: Ribosomal protein S6 kinase alpha-3 (Homo sapiens) (UniProt P51812); conditions: Compound concentration 1000.0 nM
# [23] = target: SRSF protein kinase 1 (Homo sapiens) (UniProt Q96SB4); conditions: Compound concentration 1000.0 nM
# [24] = system: ALK tyrosine kinase receptor (Homo sapiens), Q9UM73 [C1156Y]; conditions: Compound concentration 1000.0 nM
# [25] = target: Serine/threonine-protein kinase NIM1 (Homo sapiens) (UniProt Q8IY84); conditions: Compound concentration 1000.0 nM
# [26] = target: Ephrin type-A receptor 7 (Homo sapiens) (UniProt Q15375); conditions: Compound concentration 1000.0 nM
# [27] = target: Phosphatidylinositol 4-phosphate 3-kinase C2 domain-containing subunit beta (Homo sapiens) (UniProt O00750); conditions: Compound concentration 1000.0 nM
# [28] = system: Hepatocyte growth factor receptor (Homo sapiens), P08581 [Y1235D]; conditions: Compound concentration 1000.0 nM
# [29] = target: Glycogen synthase kinase-3 beta (Homo sapiens) (UniProt P49841); conditions: Compound concentration 1000.0 nM
# [30] = system: Mast/stem cell growth factor receptor Kit (Homo sapiens), P10721 [V559D]; conditions: Compound concentration 1000.0 nM
# [31] = target: Mitogen-activated protein kinase 7 (Homo sapiens) (UniProt Q13164); conditions: Compound concentration 1000.0 nM
# [32] = target: Serine/threonine-protein kinase 32C (Homo sapiens) (UniProt Q86UX6); conditions: Compound concentration 1000.0 nM
# [33] = target: Serine/threonine-protein kinase haspin (Homo sapiens) (UniProt Q8TF76); conditions: Compound concentration 1000.0 nM
# [34] = target: Cytoplasmic tyrosine-protein kinase BMX (Homo sapiens) (UniProt P51813); conditions: Compound concentration 1000.0 nM
# [35] = target: Cyclin-dependent kinase-like 2 (Homo sapiens) (UniProt Q92772); conditions: Compound concentration 1000.0 nM
# [36] = system: Phosphatidylinositol 4,5-bisphosphate 3-kinase catalytic subunit alpha isoform (Homo sapiens), P42336 [E545K]; conditions: Compound concentration 1000.0 nM
# [37] = target: Phosphatidylinositol 3-kinase C2 domain-containing subunit gamma (Homo sapiens) (UniProt O75747); conditions: Compound concentration 1000.0 nM
# [38] = target: Serine/threonine-protein kinase PAK 5 (Homo sapiens) (UniProt Q9P286); conditions: Compound concentration 1000.0 nM
# [39] = target: Dual specificity protein kinase CLK4 (Homo sapiens) (UniProt Q9HAZ1); conditions: Compound concentration 1000.0 nM
# [40] = target: Casein kinase I isoform gamma-1 (Homo sapiens) (UniProt Q9HCP0); conditions: Compound concentration 1000.0 nM
# [41] = target: Serine/threonine-protein kinase MAK (Homo sapiens) (UniProt P20794); conditions: Compound concentration 1000.0 nM
# [42] = target: Calcium/calmodulin-dependent protein kinase type II subunit delta (Homo sapiens) (UniProt Q13557); conditions: Compound concentration 1000.0 nM
# [43] = target: Tyrosine-protein kinase Fer (Homo sapiens) (UniProt P16591); conditions: Compound concentration 1000.0 nM
# [44] = target: Mitogen-activated protein kinase kinase kinase 14 (Homo sapiens) (UniProt Q99558); conditions: Compound concentration 1000.0 nM
# [45] = target: Cyclin-dependent kinase 4 (Homo sapiens) (UniProt P11802); conditions: Compound concentration 1000.0 nM
# Chain of Phosphatidylinositol 3-kinase C2 domain-containing subunit gamma (Homo sapiens) (O75747 whole entry, the tested form may be a part): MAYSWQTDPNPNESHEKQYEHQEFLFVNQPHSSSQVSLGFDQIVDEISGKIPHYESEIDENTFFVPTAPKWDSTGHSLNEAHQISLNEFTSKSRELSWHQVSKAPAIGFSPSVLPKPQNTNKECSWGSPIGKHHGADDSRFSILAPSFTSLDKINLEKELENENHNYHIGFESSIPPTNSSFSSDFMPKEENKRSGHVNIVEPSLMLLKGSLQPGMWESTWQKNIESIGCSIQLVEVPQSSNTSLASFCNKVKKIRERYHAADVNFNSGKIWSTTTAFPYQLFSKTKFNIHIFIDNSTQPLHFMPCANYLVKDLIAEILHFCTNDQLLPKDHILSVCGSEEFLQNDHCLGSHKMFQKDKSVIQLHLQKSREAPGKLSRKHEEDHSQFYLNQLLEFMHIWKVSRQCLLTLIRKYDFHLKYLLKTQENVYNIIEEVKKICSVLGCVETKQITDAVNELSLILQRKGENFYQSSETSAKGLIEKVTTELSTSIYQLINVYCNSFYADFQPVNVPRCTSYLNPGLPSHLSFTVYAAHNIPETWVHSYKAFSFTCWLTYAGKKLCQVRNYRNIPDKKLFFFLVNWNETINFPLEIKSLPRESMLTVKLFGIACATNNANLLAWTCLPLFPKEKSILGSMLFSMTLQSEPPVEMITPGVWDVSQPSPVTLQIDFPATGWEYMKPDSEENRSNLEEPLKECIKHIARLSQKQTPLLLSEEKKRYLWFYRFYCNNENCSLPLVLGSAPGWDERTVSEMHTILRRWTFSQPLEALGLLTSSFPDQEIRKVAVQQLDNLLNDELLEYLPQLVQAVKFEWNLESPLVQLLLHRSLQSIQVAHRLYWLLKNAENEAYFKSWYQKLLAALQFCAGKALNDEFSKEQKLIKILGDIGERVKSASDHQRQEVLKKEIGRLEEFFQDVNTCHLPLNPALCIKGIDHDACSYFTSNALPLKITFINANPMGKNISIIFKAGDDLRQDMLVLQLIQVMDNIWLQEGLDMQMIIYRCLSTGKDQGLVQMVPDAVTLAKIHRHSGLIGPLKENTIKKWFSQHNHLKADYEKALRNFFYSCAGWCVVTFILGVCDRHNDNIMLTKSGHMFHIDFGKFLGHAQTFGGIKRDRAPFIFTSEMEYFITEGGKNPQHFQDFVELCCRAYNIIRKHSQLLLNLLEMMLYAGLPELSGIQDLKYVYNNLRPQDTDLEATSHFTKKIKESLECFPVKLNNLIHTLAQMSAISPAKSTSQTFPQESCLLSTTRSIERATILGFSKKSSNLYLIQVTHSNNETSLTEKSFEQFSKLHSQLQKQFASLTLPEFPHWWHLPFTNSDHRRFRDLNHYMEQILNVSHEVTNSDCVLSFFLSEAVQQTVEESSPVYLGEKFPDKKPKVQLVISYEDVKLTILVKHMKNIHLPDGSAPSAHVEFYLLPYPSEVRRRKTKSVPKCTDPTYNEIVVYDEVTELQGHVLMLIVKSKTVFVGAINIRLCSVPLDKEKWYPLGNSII
# Chain of Tyrosine-protein kinase Fer (Homo sapiens) (P16591 whole entry, looked up): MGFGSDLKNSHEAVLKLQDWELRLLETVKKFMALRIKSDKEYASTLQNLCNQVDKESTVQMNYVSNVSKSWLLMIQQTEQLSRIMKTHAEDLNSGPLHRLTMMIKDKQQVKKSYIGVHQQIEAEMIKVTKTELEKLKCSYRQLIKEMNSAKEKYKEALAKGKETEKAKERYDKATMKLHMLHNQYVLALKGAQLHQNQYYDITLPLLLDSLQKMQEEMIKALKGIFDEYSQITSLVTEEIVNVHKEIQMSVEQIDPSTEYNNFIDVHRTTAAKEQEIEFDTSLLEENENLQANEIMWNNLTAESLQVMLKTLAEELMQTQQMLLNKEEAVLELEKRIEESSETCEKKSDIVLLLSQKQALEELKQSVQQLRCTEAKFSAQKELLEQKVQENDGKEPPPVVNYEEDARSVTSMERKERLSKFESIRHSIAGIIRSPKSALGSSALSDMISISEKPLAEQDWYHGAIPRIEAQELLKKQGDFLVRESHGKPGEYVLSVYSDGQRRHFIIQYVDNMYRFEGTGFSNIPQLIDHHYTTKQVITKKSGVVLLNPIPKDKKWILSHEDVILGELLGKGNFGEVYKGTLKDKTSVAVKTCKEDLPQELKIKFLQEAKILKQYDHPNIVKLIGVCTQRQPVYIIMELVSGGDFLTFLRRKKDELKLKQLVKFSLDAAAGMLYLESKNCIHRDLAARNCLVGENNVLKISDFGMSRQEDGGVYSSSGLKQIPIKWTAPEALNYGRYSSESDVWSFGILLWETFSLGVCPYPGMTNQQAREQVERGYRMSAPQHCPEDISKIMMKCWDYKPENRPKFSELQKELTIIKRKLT
# Chain of Mitogen-activated protein kinase kinase kinase 14 (Homo sapiens) (Q99558 whole entry, looked up): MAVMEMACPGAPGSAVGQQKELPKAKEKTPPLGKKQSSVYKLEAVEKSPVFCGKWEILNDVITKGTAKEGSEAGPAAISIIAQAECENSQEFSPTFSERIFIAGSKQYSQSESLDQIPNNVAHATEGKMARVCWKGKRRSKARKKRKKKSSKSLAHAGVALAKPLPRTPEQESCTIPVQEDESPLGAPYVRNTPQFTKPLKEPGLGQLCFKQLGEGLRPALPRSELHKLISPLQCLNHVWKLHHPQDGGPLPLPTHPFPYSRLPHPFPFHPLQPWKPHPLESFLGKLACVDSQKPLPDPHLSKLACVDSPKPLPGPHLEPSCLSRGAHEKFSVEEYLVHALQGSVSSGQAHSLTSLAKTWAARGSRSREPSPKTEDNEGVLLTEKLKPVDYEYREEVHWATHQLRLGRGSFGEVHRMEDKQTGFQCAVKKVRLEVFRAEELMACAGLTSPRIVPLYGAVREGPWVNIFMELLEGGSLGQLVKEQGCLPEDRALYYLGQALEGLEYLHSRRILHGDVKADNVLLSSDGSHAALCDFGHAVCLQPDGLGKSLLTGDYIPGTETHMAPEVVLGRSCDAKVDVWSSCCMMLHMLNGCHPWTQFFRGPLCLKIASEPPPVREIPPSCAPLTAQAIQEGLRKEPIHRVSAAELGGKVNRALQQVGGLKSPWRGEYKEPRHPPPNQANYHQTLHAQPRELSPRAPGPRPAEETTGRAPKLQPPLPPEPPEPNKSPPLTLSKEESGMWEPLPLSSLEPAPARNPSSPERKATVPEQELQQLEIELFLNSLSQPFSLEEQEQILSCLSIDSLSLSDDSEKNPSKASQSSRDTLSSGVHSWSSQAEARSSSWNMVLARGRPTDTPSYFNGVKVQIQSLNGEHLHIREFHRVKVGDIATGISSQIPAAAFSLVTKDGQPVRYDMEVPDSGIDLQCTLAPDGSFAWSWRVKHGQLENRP
# Chain of Tyrosine-protein kinase BTK (Homo sapiens) (Q06187 whole entry): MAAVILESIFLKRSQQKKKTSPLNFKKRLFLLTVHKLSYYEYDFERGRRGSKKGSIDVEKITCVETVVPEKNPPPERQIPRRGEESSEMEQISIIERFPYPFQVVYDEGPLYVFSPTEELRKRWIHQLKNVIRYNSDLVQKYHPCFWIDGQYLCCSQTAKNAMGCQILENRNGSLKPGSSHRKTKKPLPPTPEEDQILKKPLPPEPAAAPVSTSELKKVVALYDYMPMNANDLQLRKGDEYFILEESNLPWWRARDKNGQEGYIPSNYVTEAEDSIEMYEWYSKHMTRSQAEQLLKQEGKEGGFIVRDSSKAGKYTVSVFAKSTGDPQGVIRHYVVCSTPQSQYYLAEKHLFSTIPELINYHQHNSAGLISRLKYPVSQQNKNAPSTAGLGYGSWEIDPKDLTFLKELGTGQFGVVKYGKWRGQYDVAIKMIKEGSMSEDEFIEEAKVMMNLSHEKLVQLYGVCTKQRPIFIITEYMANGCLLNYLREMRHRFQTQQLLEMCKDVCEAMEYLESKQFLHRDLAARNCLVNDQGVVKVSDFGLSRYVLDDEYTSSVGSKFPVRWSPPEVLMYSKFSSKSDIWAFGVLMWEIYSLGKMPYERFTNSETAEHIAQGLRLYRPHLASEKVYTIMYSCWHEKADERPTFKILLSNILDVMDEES
# Chain of Cytoplasmic tyrosine-protein kinase BMX (Homo sapiens) (P51813 whole entry): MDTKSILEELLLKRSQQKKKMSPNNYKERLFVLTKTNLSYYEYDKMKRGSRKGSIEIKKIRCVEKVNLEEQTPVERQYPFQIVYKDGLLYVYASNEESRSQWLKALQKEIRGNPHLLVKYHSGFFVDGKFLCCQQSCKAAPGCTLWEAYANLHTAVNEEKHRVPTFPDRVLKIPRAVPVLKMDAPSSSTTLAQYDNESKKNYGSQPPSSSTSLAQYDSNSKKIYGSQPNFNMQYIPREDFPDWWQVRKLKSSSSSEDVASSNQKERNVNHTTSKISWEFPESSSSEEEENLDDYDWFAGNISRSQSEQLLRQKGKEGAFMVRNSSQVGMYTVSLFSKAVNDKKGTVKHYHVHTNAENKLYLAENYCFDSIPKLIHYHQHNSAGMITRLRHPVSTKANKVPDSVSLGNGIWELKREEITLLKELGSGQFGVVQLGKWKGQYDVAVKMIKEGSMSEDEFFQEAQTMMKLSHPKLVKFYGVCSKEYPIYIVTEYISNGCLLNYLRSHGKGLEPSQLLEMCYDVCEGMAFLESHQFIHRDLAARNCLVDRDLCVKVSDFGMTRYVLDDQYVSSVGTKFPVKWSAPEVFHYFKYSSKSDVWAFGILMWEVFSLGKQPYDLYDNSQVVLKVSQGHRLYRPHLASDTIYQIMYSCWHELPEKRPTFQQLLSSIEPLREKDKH
# Chain of Beta-2 adrenergic receptor (Homo sapiens) (P07550 whole entry, looked up): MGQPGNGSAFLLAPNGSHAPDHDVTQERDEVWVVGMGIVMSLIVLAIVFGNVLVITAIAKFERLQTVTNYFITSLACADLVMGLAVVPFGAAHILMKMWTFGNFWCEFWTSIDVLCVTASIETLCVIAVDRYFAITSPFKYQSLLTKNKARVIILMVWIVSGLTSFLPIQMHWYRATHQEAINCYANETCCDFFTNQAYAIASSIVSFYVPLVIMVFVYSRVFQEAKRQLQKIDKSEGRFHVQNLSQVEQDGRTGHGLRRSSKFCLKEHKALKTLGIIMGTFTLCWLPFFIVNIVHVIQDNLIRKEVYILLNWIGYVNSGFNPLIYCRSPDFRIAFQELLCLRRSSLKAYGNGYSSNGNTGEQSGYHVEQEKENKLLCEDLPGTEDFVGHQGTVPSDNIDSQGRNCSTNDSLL
smiles,measurement,setting,value
COc1ccc2c(O[C@@H]3C[C@H]4C(=O)N[C@]5(C(=O)O)CC5/C=C\CCCCC[C@H](NC(=O)OC5CCCC5)C(=O)N4C3)cc(-c3csc(NC(=O)C(C)C)n3)nc2c1C (stereo not given in full) [BI 1230],residual activity,[1],92%
same,residual activity,[2],85%
same,residual activity,[3],85%
same,inhibition,[4],24.6%
same,residual activity,[5],72%
same,residual activity,[6],99%
same,residual activity,[7],95%
same,residual activity,[8],77%
same,residual activity,[9],86%
same,residual activity,[10],93%
same,residual activity,[11],100%
same,residual activity,[12],68%
same,residual activity,[13],100%
same,residual activity,[14],87%
same,residual activity,[15],100%
same,residual activity,[16],100%
same,residual activity,[17],94%
same,residual activity,[18],74%
same,residual activity,[19],92%
same,residual activity,[20],92%
same,residual activity,[21],92%
same,residual activity,[22],100%
same,residual activity,[23],100%
same,residual activity,[24],100%
same,residual activity,[25],83%
same,residual activity,[26],100%
same,residual activity,[27],82%
same,residual activity,[28],100%
same,residual activity,[29],100%
same,residual activity,[30],91%
same,residual activity,[31],100%
same,residual activity,[32],63%
same,residual activity,[33],97%
same,residual activity,[34],57%
same,residual activity,[35],89%
same,residual activity,[36],68%
same,residual activity,[37],86%
same,residual activity,[38],100%
same,residual activity,[39],100%
same,residual activity,[40],94%
same,residual activity,[41],100%
same,residual activity,[42],100%
same,residual activity,[43],100%
same,residual activity,[44],89%
same,residual activity,[45],74%
O=C(N[C@H]1CCCCC/C=C\C2C[C@@]2(C(=O)O)NC(=O)[C@@H]2C[C@@H](Oc3ccncc3)CN2C1=O)OC1CCCC1 (stereo not given in full) [BI 1675],residual activity,[1],100%
same,residual activity,[2],91%
same,residual activity,[3],100%
same,inhibition,[4],12.8%
same,residual activity,[5],84%
same,residual activity,[6],100%
same,residual activity,[7],100%
same,residual activity,[8],93%
same,residual activity,[9],80%
same,residual activity,[10],100%
same,residual activity,[11],100%
same,residual activity,[12],38%
same,residual activity,[13],98%
same,residual activity,[14],98%
same,residual activity,[15],100%
same,residual activity,[16],100%
same,residual activity,[17],100%
same,residual activity,[18],85%
same,residual activity,[19],60%
same,residual activity,[20],99%
same,residual activity,[21],100%
same,residual activity,[22],100%
same,residual activity,[23],91%
same,residual activity,[24],100%
same,residual activity,[25],82%
same,residual activity,[26],100%
same,residual activity,[27],84%
same,residual activity,[28],81%
same,residual activity,[29],89%
same,residual activity,[30],89%
same,residual activity,[31],90%
same,residual activity,[32],100%
same,residual activity,[33],100%
same,residual activity,[34],66%
same,residual activity,[35],100%
same,residual activity,[36],95%
same,residual activity,[37],71%
same,residual activity,[38],83%
same,residual activity,[39],93%
same,residual activity,[40],88%
same,residual activity,[41],82%
same,residual activity,[42],87%
same,residual activity,[43],100%
same,residual activity,[44],100%
same,residual activity,[45],100%
